Our source for the IC50 values is BindingDB's records for patent US20250320234 (Pretzel Therapeutics, 2025).

In this test the target is T1, Lon protease homolog, mitochondrial (Homo sapiens, UniProt P36776).
T1 sequence (P36776 whole entry): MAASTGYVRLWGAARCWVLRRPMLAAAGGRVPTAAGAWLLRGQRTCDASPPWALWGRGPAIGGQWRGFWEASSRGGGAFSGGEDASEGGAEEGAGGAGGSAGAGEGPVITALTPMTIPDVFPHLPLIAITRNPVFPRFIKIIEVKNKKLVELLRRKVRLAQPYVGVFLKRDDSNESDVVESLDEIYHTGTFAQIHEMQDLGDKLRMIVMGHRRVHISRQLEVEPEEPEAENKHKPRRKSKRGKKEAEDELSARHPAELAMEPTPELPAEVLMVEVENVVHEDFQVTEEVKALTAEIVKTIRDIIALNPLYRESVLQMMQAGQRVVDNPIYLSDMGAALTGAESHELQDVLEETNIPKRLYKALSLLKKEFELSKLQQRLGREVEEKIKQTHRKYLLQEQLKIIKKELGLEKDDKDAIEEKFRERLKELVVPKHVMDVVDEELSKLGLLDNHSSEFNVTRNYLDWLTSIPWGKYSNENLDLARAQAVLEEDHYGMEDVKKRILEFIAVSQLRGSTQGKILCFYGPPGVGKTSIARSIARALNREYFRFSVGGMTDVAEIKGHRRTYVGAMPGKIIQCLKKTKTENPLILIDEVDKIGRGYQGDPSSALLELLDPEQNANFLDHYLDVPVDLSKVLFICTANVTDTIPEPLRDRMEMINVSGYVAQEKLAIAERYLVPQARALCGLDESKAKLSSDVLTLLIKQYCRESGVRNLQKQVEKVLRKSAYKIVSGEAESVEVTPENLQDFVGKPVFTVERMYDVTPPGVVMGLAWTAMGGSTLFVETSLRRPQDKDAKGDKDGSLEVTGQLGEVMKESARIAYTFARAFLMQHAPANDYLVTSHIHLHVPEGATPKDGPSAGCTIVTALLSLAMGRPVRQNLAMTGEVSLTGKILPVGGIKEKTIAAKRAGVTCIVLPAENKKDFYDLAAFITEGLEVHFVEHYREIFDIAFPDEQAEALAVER
Briefly: Biological/Biochemical Evaluation. The method, then: In this Example, LONP1 (NM_004793.4) activity was measured by a FRET-based assay for protease activity using a fluorogenic peptide DabcylYRGIT(2Abu)SORQK(5-FAM) (Cambridge Research Biochemicals) as substrate. LONP1 activity is followed by an increase in fluorescence signal due to the degradation of the peptide. Inhibition of LONP1 protease activity by an inhibitor compound of the disclosure elicits a decrease in the fluorescent signal. The assay is performed in a 384-well plate (Greiner, cat. #781076) using the following reagents and conditions: substrate (3 μM) was incubated for 1 hour at 37° C. in the presence of LONP1 (15 nM as monomer), 25 mM Tris pH 8.0, 10 mM MgCl2, 0.03 mg/mL […], 0.5 mM DTT, 0.0003% Tween-20, 10 mM NaCl, 0.06 mM ATP and 0.5 mM EGTA in a 15 μL final volume. The LONP1-containing mix (10 μL) was incubated with the test compound for 15 min at 37° C. before adding the peptide-containing mix (5 μL). Solutions were dispensed using a small cassette-Multidrop Combi (Thermo Scientific). Fluorescence was measured using a PheraStar plate reader (BMG Labtech) FI-FRET EX 485 nm Em 520 nm.
For `COC[C@@H](NC(=O)c1cnccn1)C(=O)N[C@@H](CCCc1ccc(OC)cc1)B(O)O` [US20250320234, Compound 5], the 50% inhibitory concentration (IC50) (usually the point on the concentration scale where inhibition reaches its midpoint) was less than 50 nM.

With `CO[C@@H](C)[C@@H](NC(=O)c1cnccn1)C(=O)N[C@@H](CCCc1ccccc1)B(O)O` [US20250320234, Compound 6], the half-inhibitory concentration (IC50) is less than 50 nM.

Consider `COC[C@@H](NC(=O)[C@@H]1CCC(=O)N1)C(=O)N[C@@H](CCCc1ccccc1)B(O)O` [US20250320234, Compound 7], for which the half-inhibitory concentration (IC50) is less than 50 nM.

`COC[C@@H](NC(=O)c1ccccn1)C(=O)N[C@@H](CCCc1ccccc1)B(O)O` [US20250320234, Compound 9] showed a concentration for half-maximal inhibition (IC50) of less than 50 nM.

The compound `COC[C@@H](NC(=O)c1cccc(C)n1)C(=O)N[C@@H](CCCc1ccccc1)B(O)O` [US20250320234, Compound 10] came in with a concentration for half-maximal inhibition (IC50) of less than 50 nM.

On to `O=C(N[C@H](COCc1ccccc1)C(=O)N[C@@H](CCCc1ccccc1)B(O)O)c1cnccn1` [US20250320234, Compound 11], for which the half-maximal inhibitory concentration (IC50) is less than 50 nM.

On to `COC[C@@H](NC(=O)c1cnccn1)C(=O)N[C@@H](CCCc1ccc(Cl)cc1)B(O)O` [US20250320234, Compound 12], for which the concentration for half-maximal inhibition (IC50) is less than 50 nM.

`COC[C@@H](NC(=O)c1cnccn1)C(=O)N[C@@H](CCOc1ccccc1)B(O)O` [US20250320234, Compound 14] came in with a half-maximal inhibitory concentration (IC50) of less than 50 nM.

Take `O=C(N[C@H](COC1CC1)C(=O)N[C@@H](CCCc1ccccc1)B(O)O)c1cnccn1` [US20250320234, Compound 20]: the IC50 is less than 50 nM.

In turn, `COC[C@@H](NC(=O)c1cnccn1)C(=O)N[C@@H](CCOc1ccc(Cl)cc1)B(O)O` [US20250320234, Compound 21] returned a 50% inhibitory concentration (IC50) of less than 50 nM.

In turn, `COC[C@@H](NC(=O)c1cnccn1)C(=O)N[C@@](C)(CCCc1ccccc1)B(O)O` [US20250320234, Compound 22] gave an IC50 of more than 5000 nM.

`COC[C@@H](NC(=O)c1cnccn1)C(=O)N[C@@H](CCOc1ccc(F)cc1)B(O)O` [US20250320234, Compound 23] displayed an IC50 of less than 50 nM.

Take `COC[C@@H](NC(=O)c1cnccn1)C(=O)N[C@@H](CCOc1ccc(Cl)cc1F)B(O)O` [US20250320234, Compound 24]: the IC50 was less than 50 nM.

`COC[C@@H](NC(=O)c1cnccn1)C(=O)N[C@@H](CCOc1ccc(Cl)c(F)c1)B(O)O` [US20250320234, Compound 25] came in with an IC50 of less than 50 nM.

`COC[C@@H](NC(=O)c1cnccn1)C(=O)N[C@H](CCOc1ccc(Cl)cc1C)B(O)O` [US20250320234, Compound 28] registered a half-inhibitory concentration (IC50) of more than 5000 nM.

Regarding `COC[C@@H](NC(=O)N1CCOCC1)C(=O)N[C@@H](CCCc1ccccc1)B(O)O` [US20250320234, Compound 31], the IC50 was less than 50 nM.

As for `COC[C@@H](NC(=O)c1cnccn1)C(=O)N[C@@H](CCCc1ccc(F)cc1)B(O)O` [US20250320234, Compound 32], the half-inhibitory concentration (IC50) was less than 50 nM.

`O=C(N[C@H](CSc1ccccc1)C(=O)N[C@@H](CCCc1ccccc1)B(O)O)c1cnccn1` [US20250320234, Compound 34] registered an IC50 of less than 50 nM.

Take `CN(C)S(=O)(=O)C[C@H](NC(=O)c1cnccn1)C(=O)N[C@@H](CCCc1ccccc1)B(O)O` [US20250320234, Compound 36]: the half-inhibitory concentration (IC50) is less than 50 nM.

Compound `COC[C@@H](NC(=O)c1cccc(C)n1)C(=O)N[C@@H](CCOc1ccccc1)B(O)O` [US20250320234, Compound 42] had an IC50 of less than 50 nM.

As to `COC[C@@H](NC(=O)c1ccccn1)C(=O)N[C@@H](CCOc1ccccc1)B(O)O` [US20250320234, Compound 43], the IC50 is less than 50 nM.

`COC[C@@H](NC(=O)c1cncc(C)c1)C(=O)N[C@@H](CCOc1ccccc1)B(O)O` [US20250320234, Compound 44] yielded an IC50 of less than 50 nM.

`COC[C@@H](NC(=O)c1ccc(Cl)cc1)C(=O)N[C@@H](CCCc1ccccc1)B(O)O` [US20250320234, Compound 51] displayed a 50% inhibitory concentration (IC50) of less than 50 nM.

The compound `COC[C@@H](NC(=O)c1cncnc1)C(=O)N[C@@H](CCCc1ccccc1)B(O)O` [US20250320234, Compound 52] gave an IC50 of less than 50 nM.

In the case of `COC[C@@H](NC(=O)c1cccc(Cl)c1)C(=O)N[C@@H](CCCc1ccccc1)B(O)O` [US20250320234, Compound 54], the IC50 is less than 50 nM.

As to `COC[C@@H](NC(=O)c1cc(Cl)ccc1Cl)C(=O)N[C@@H](CCCc1ccccc1)B(O)O` [US20250320234, Compound 56], the concentration for half-maximal inhibition (IC50) was less than 50 nM.

For the compound `COC[C@@H](NC(=O)c1ccccc1Cl)C(=O)N[C@@H](CCCc1ccccc1)B(O)O` [US20250320234, Compound 57], the IC50 was less than 50 nM.
